The test system of one data set is BG02 hESCs. Briefly: Proliferation of hESCs growing in conditioned medium (CM) with AG825. It counts as cell-based. The source says:
FIGS. 6A-6F depict the inhibition of proliferation of BG02 cells grown in conditioned media (CM). […] The mean and range of normalized relative intensity is plotted (right).
(§1) Colony and cell-counting assays confirmed that LongR3-IGF1 and HRG played the major roles in self-renewal and proliferation in the context of one of the embodiments of the present invention (FIG. 6D, FIG. 6E). Phosphorylation of IGF1R, IR, […], ErbB2, and ErbB3 was also observed in both steady-state DC-HAIF cultures, and in starved cultures that were pulsed with DC-HAIF (FIG. 6F).

For another data set, the target named is T1, ErbB2 (Homo sapiens, UniProt P04626).
T1 construct: endogenous in cells; host or cells: human embryonic stem cells (hESCs) grown in DC-HAIF
Briefly: Western blotting of ErbB2 autophosphorylation in starved/heregulin pulsed hESCs in DC-HAIF. The format is cell-based.
Description: as §1

Another data set concerns BG01v cells. Put plainly: Inhibition of proliferation of BG01v cells by ErbB tyrosine kinase inhibitors, alkaline phosphatase staining. It counts as cell-based. The protocol: To examine the effect of known inhibitors of ErbB tyrosine kinases in hESCs, BG01v cells were plated in 6 well trays on […]™ diluted at 1:1000, in defined culture medium (DC) containing 100 ng/mL LongR3-IGF1, 8 ng/mL FGF2 and 1 ng/mL Activin A. On the next day, DMSO (carrier control), 50 nM-20 μM AG1478 (an ErbB1 inhibitor), or 100 nM-20 μM AG879 (an ErbB2 inhibitor) was added with fresh medium. The cells were cultured for an additional 5 days, with daily media changes. The cultures were then fixed and stained for alkaline phosphatase activity.

The next data set relates to R1 mouse ES cells. Put plainly: Inhibition of ErbB1 and ErbB2 signaling in mouse ES cells, alkaline phosphatase staining. It counts as cell-based. The procedure: AG1478 and AG879 were used to examine the role of HRG/ErbB signaling in mouse ES cells. R1 mouse ES cells were maintained in standard conditions in DMEM, 10% FBS, 10% KSR, 0.5 U/mL penicillin, 0.5 U/mL streptomycin, 1×NEAA, 1 mM sodium pyruvate, 1000 U/mL LIF (ESGRO), 0.1 mM β-ME, and were passaged with 0.5% trypsin/EDTA. 2×10^5 cells/well were plated in 6 well trays on […]™ diluted at 1:1000. The day after plating, DMSO (carrier control), 1-50 μM AG1478, or 1-50 μM AG879 was added with fresh medium. The cells were cultured an additional 8 days, with daily media changes. The cultures were then fixed and stained for alkaline phosphatase activity.

The next data set relates to ES cells. Briefly: Suspension cultures in various media, cell counting. It counts as cell-based. The conditions noted are these: in all conditions (HAIF, HAI, HI). The procedure: To determine if suspensions of ES cells could be cultured in the absence of FGF2 and/or Activin A, ES cells were cultured in a variety of media, with and without these factors. […] In addition, the cells in each media were successfully passaged with no morphological signs of differentiation.

A further data set concerns BG02 cells. Briefly: Suspension aggregates of BG02 cells in DC-HAIF with and without Y27632, cell counting. It counts as cell-based, human. The protocol: To attenuate the loss of cells after initial passaging in suspension, an inhibitor of apoptosis was added to the medium. Cells were passaged as in Example 12, except that Y-27632, an inhibitor of p160-Rho-associated coiled-coil kinase (ROCK), was added to the medium.
Suspension aggregates of BG02 cells were formed by seeding 2×10^6 single cells in 6-well dishes in 3 mL DC-HAIF medium, at 100 rpm on a rotating platform in an incubator (Table 4, Experiment A). 10 μM Y27632 ROCK inhibitor was added to test wells for the course of the experiment and the cultures observed daily and counted after 24 hours (day 1) and after 4 or 5 days. […] Cell counting confirmed that more viable cells were present in the presence of inhibitor (Table 4, Experiment A). This difference in cell number persisted throughout the course of the culture period, with more cells also observed on day 4, compared to cultures without inhibitor. As with previous suspension culture experiments, cells exposed to Y27632 could also be serially passaged, and maintained in an undifferentiated state (not shown). […]
Because of the enhanced survival and aggregation observed in the presence of Y27632, an experiment was performed to examine if it was possible to reduce the number of cells used to seed suspension cultures (Table 4, Experiment C). […] To determine if addition of a ROCK inhibitor would allow cell seeding at lower densities, a range of cell concentrations (from about 2×10^6 total cells down to about 1×10^5 total cells was used to seed suspension cultures in 6-well trays cells in 3 mL DC-HAIF. 10 μM Y27632 was added to all conditions, and the cell number and viability assessed on day 5. Successful aggregation and expansion was observed even at low seeding densities. An approximately 13 fold expansion of viable cells was observed even in cultures that were only seeded with 1×10^5 cells. Inhibition of ROCK with Y27632 therefore facilitated initial survival of hESCs at much lower densities in this suspension system.

For data set [1], the system named is hES-derived pancreatic epithelial and endocrine type cells. Put plainly: Re-aggregation of dissociated stage 4 or stage 5 adherent cultures. The format is cell-based, human. Particulars: 10 μM. The procedure:
Adherent cultures at either stage 4 (about d10-d14 into the differentiation protocol; pancreatic epithelial and endocrine type cells) or stage 5 (about day 16 to day 30 into the differentiation protocol; endocrine precursor and endocrine cells) were similarly dissociated into single cells, counted, and pelleted. The cell pellet was then resuspended in DMEM CMRL supplemented Pen/Strep and GLUTAMAX™, and 1X B27-supplement and DNase (50-100 μg/mL, Roche Diagnostics) and 0-2% FBS. […] Cells were equally distributed into 6-well plates and placed on a rotating platform at 100 rpm to 140 rpm form 4 hours to overnight substantially as described above.

Another data set relates to hESCs. Briefly: hESC proliferation at physiological levels of insulin and IGF1, cell counting. It counts as cell-based, human. Particulars: titrated about 0.2 to about 200 ng/mL, counting after 5 days. The protocol:
Essentially all of the reported culture conditions for hESCs to date include supraphysiological levels of insulin, which can stimulate both IR and IGF1R. To distinguish the activities that insulin and insulin-substitutes exert, compared to IGF1, hESCs are cultured in defined media conditions in physiological levels of these growth factors. The concentrations of insulin and IGF1 are titrated from about 0.2 to about 200 ng/mL and cell proliferation is monitored by counting cells after 5 days. Cultures that expand successfully are serially passaged 5 times.

For data set [2], the system named is hES-derived cell aggregates. Put plainly: QPCR of endocrine progenitor markers after stage 3 with different noggin concentrations. The format is cell-based, human. Particulars: lower concentration (25 ng/mL vs 50 ng/mL) in stage 3; any given cell density. The protocol:
Human ES cell aggregates and hES-derived cell aggregates, including d0 cell aggregates produced directly in differentiation media, were generated substantially as described above. After about five (5) days of differentiation through stages 1 and 2, the differentiating cell aggregates were pooled and re-aliquoted into individual wells at different seeding densities, e.g., a 28 mL suspension of foregut endoderm stage cell aggregate suspension was seeded or re-aliquoted at 4, 6, 8 or 10 mL per well (a 2.5-fold range of cell densities). This cell distribution was carried out in duplicate and one set of wells was fed with a stage 3 media (DMEM/PenStrep/GLUTAMAX™+1% B27 supplement (vol/vol)+0.25 uM KAAD-cyclopamine+3 nM TTNPB) containing noggin at 50 ng/mL and the other set of wells contained noggin at 25 ng/mL. Stage 3 proceeded for 3 days with daily media exchange. Cell samples were taken in duplicate for real-time QPCR analysis at the end of the three days of stage 3 (or about day 8) and again at after stage 4 (or about day 14).

The mark [3] stands for this setting: morphology, alkaline phosphatase activity.

Entries after “also recorded” stand apart in the source; their conditions may differ.

T1 sequence (P04626 23-1255): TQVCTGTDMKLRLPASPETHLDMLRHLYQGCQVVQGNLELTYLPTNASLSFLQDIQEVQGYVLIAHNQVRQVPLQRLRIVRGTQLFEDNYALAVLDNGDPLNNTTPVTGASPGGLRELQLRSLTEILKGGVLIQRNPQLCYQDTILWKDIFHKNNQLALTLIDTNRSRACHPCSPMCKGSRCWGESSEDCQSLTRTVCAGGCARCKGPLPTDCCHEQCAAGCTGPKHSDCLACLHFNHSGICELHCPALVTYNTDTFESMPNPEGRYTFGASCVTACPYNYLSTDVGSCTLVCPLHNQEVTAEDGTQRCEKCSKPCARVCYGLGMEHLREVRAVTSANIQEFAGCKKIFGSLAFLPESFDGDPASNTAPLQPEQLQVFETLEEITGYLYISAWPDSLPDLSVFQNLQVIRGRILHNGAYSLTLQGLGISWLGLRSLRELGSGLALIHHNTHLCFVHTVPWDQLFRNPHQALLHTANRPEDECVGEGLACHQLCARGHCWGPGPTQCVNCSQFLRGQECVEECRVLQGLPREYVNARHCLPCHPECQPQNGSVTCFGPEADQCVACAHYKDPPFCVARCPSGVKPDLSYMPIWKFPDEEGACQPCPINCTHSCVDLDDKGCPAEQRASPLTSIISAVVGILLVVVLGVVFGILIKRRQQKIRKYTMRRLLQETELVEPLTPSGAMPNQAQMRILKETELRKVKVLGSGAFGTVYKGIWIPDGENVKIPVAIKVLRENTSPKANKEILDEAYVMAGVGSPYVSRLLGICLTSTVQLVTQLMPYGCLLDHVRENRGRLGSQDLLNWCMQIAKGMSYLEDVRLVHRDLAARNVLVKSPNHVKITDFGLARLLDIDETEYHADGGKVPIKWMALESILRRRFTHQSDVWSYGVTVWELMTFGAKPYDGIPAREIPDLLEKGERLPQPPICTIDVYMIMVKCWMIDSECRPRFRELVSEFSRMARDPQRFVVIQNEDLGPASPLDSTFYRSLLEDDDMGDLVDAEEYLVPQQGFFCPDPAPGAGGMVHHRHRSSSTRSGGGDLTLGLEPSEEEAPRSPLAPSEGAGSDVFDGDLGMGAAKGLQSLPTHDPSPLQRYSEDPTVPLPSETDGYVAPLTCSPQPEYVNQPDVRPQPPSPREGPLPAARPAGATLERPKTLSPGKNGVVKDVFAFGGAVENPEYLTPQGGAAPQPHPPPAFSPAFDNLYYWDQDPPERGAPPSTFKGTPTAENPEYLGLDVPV

With `COc1cc(/C=C(\C#N)C(N)=O)cc(CSc2nc3ccccc3s2)c1O` [AG825], the cell death result in the data set with BG02 hESCs was “without widespread cell death”. For the same molecule, in the data set on BG02 hESCs (50 μM), the “proliferation of hESCs” value was “significantly inhibited proliferation”. In addition, the “autophosphorylation of ErbB2 at tyrosine-1248” value at ErbB2 was “inhibited autophosphorylation of ErbB2 at tyrosine-1248; also recorded: inhibits ErbB2 Y1248 phosphorylation”.

For `CC(C)(C)c1cc(/C=C(\C#N)C(N)=S)cc(C(C)(C)C)c1O` [AG879], the cell growth entry in the data set on BG01v cells (5 μM, 5 days) is given as “substantially inhibited cell growth; also recorded: substantially slowed cell growth”; in the data set on R1 mouse ES cells (50 μM, 8 days), “substantially inhibited cell growth”. Further, in the data set with BG01v cells (20 μM), the cell death entry is reported as “caused cell death”. Also, the “differentiation of cultures grown in inhibitor” value with BG01v cells (setting [3]) is “did not appear to differentiate”. Also, the proliferation entry with R1 mouse ES cells (20 μM, 8 days) is listed as “may have slowed proliferation”. Also, in the data set on R1 mouse ES cells (mESCs vs BG01v cells grown in defined conditions), the “concentration required to inhibit proliferation, mESCs relative to BG01v cells” value is on record as about 10 ×. Also, the “differentiation of mESCs grown in inhibitor” value in the data set with R1 mouse ES cells (setting [3]) is on record as “did not appear to differentiate”.

`COc1cc2ncnc(Nc3cccc(Cl)c3)c2cc1OC` [AG1478]: the “effect on cell proliferation” value in the data set on BG01v cells (50 nM-20 μM, 5 days) is “neither DMSO nor AG1478 (50 nM-20 μM) had an apparent affect on cell proliferation; also recorded: did not appear to affect proliferation”; in the data set on R1 mouse ES cells (1-50 μM, 8 days, 10% FBS, 10% KSR, LIF), “no apparent affect on cell proliferation; also recorded: did not overtly inhibit proliferation”.

Regarding `C[C@@H](N)[C@H]1CC[C@H](C(=O)Nc2ccncc2)CC1` [Y27632], the “yield of cells generated by day 5” value in the data set with ES cells is given as “increased the yield of cells”. Further, the “initial survival and aggregation of hESCs in suspension culture” value in the data set with BG02 cells (10 μM, compared to medium without inhibitor) was “much larger aggregates were formed; also recorded: enhanced initial survival and aggregation of hESCs; also recorded: enhancement of hESC aggregation”. Further, the “cell number when the aggregates were split again” value in the data set with BG02 cells (Expt. A, compared to cultures without inhibitor) is listed as “almost twice as many cells were observed”. In addition, the “differentiation state, RT-PCR of pluripotency markers” value with BG02 cells (suspension culture in the presence of Y27632) is “remained undifferentiated”. Moreover, the cell survival entry in data set [1] is recorded as “supported cell survival”.

As for IGF1: insulin-like growth factor, the “expansion of hESC cultures” value in the data set on hESCs is reported as “support the expansion of hESC cultures”.

For the molecule “insulin: protein that binds to the insulin receptor”, the “expansion of hESC cultures” value with hESCs is on record as “do not”.

B1: noggin: recombinant human Noggin, BMP antagonist (protein, UniProt Q13253 28-232, looked up)
Noggin: QHYLHIRPAPSDNLPLVDLIEHPDPIFDPKEKDLNETLLRSLLGGHYDPGFMATSPPEDRPGGGGGAAGGAEDLAELDQLLRQRPSGAMPSEIKGLEFSEGLAQGKKQRLSKKLRRKLQMWLWSQTFCPVLYAWNDLGSRFWPRYVKVGSCFSKRSCSVPEGMVCKPSKSVHLTVLRWRCQRRGGQRCGWIPIQYPIISECKCSC
Turning to B1, the “endocrine progenitor cell types, expression of NGN3 and NKX2-2” value in data set [2] was “reduced expression of NGN3 and NKX2-2”.

For the origin of these results see patent US12234477B2, “Scalable primate pluripotent stem cell aggregate suspension culture” (ViaCyte, Inc., priority 2008, dated 2025).
